Experimental data: patent US4724233A, “Therapeutical application of phosphonylmethoxyalkyl adenines” (Stichting Rega VZW, priority 1985, dated 1988)
≈ marks a conversion by molar mass, not a printed value. Read-outs that look alike come from different tables or passages of the source.

What was measured:
Reovirus = assay: inhibition of cytopathic effect of reovirus; format: cell-based; conditions: Table 3, Vero B cells; for EC50: Reovirus sp., read-out: MIC50
Parainfluenza 3 = assay: inhibition of cytopathic effect of parainfluenza 3; format: cell-based; conditions: Table 3, Vero B cells; for EC50: read-out: MIC50
Sindbis = assay: inhibition of cytopathic effect of Sindbis; format: cell-based; conditions: Table 3, Vero B cells; for EC50: read-out: MIC50
Coxsackie B4 = assay: inhibition of cytopathic effect of Coxsackie B4; format: cell-based; conditions: Table 3, Vero B, HeLa cells; for EC50: Enterovirus B, B4, read-out: MIC50
Polio 1 = assay: microbe, parasite or virus in culture; format: cell-based; conditions: for EC50: HeLa, read-out: MIC50
Measles = assay: inhibition of cytopathic effect of measles; format: cell-based; conditions: Table 3, Vero Flow cells; for EC50: Measles morbillivirus, read-out: MIC50
Vesicular stomatitis = assay: microbe, parasite or virus in culture; format: cell-based; conditions: for EC50: read-out: MIC50
Vaccinia = assay: microbe, parasite or virus in culture; format: cell-based; conditions: for EC50: Orthopoxvirus vaccinia, PRK, read-out: MIC50
Herpes simplex I (KOS) = assay: inhibition of cytopathic effect of herpes simplex 1 (KOS); format: cell-based, herpes simplex virus type 1; conditions: PRK cells; for EC50: Human alphaherpesvirus 1, read-out: MIC50
Herpes simplex 2 (G) = assay: inhibition of cytopathic effect of herpes simplex 2 (G); format: cell-based, herpes simplex virus type 2; conditions: PRK cells; for EC50: Human alphaherpesvirus 2, PRK, read-out: MIC50
Moloney sarcoma = assay: inhibition of Moloney sarcoma virus; format: cell-based, Moloney mouse sarcoma virus; conditions: Table 3, MO cells
HSV-1 (strain) McIntyre = assay: inhibition of cytopathic effect of HSV-1 strain McIntyre; format: cell-based, herpes simplex virus type 1; conditions: Table 4, HSV-1 McIntyre, PRK cells; for EC50: Human alphaherpesvirus 1, read-out: MIC50
HSV-1 (strain) F = assay: inhibition of cytopathic effect of HSV-1 strain F; format: cell-based, herpes simplex virus type 1; conditions: Table 4, HSV-1 F, PRK cells; for EC50: Human alphaherpesvirus 1, read-out: MIC50
[1] = test system: HSV-1 (strain) TK^- C1101; assay: inhibition of cytopathic effect of HSV-1 TK- strain C1101; format: cell-based, herpes simplex virus type 1; conditions: for EC50: Human alphaherpesvirus 1, PRK, read-out: MIC50
HSV-2 (strain) 196 = assay: inhibition of cytopathic effect of HSV-2 strain 196; format: cell-based, herpes simplex virus type 2; conditions: Table 4, HSV-2 196, PRK cells; for EC50: Human alphaherpesvirus 2, read-out: MIC50
HSV-2 (strain) Lyons = assay: inhibition of cytopathic effect of HSV-2 strain Lyons; format: cell-based, herpes simplex virus type 2; conditions: Table 4, HSV-2 Lyons, PRK cells; for EC50: Human alphaherpesvirus 2, read-out: MIC50
[2] = test system: herpes simplex virus type 1 (HSV-1) (strain KOS); format: cell-based; conditions: PRK cells
vaccinia virus (VV) = format: cell-based; conditions: PRK cells, average of two determinations
PRK cells [3] = conditions: 72 h
PRK cells [4] = assay: antimetabolic activity: incorporation of 3H-labeled precursors into primary rabbit kidney cells
in vitro = conditions: rabbit, prk cells
[5] = antimetabolic activity: incorporation of 3H-labeled precursors into primary rabbit kidney cells; conditions: rabbit, prk cells
[6] = test system: HSV-1 (strain) TK^- B2006; assay: inhibition of cytopathic effect of HSV-1 TK- strain B2006; format: cell-based, herpes simplex virus type 1; conditions: Human alphaherpesvirus 1, PRK, read-out: MIC50
VZV (strain) YS = assay: microbe, parasite or virus in culture; format: cell-based, varicella-zoster virus; conditions: Human alphaherpesvirus 3, Table 5, HEL cells, read-out: MIC50
VZV (strain) OKa = assay: microbe, parasite or virus in culture; format: cell-based, varicella-zoster virus; conditions: Human alphaherpesvirus 3, HEL, read-out: MIC50
VZV (strain) TK^- YSR = assay: microbe, parasite or virus in culture; format: cell-based, varicella-zoster virus; conditions: Human alphaherpesvirus 3, HEL, read-out: MIC50
VZV (strain) TK^- 07-1 = assay: microbe, parasite or virus in culture; format: cell-based, varicella-zoster virus; conditions: Human alphaherpesvirus 3, HEL, read-out: MIC50
CMV (strain) Davis = assay: inhibition of CMV strain Davis in HEL cells; format: cell-based, cytomegalovirus; conditions: Human betaherpesvirus 5, Table 5, read-out: MIC50
CMV (strain) AD 169 = assay: inhibition of CMV strain AD 169 in HEL cells; format: cell-based, cytomegalovirus; conditions: Human betaherpesvirus 5; Table 5; CMV AD 169, HEL cells; read-out: MIC50
TK^- herpes viruses = conditions: Prusoff et al.; cited from earlier work
[7] = 48 h, 10 μg/ml (value in parentheses)
[8] = ID50 Leu incorporation, (3H-4,5)Leu
[9] = ID50 Urd incorporation, (3H-5)Urd
[10] = ID50 dThd incorporation, (3H-methyl) dThd
[11] = ID50 dUrd incorporation, (3H-1',2')dUrd

## Nc1ncnc2c1ncn2CC1COP(=O)(O)CO1 (racemic) [No. 5, 2',3'-cyclic O-phosphonylmethyl ether of (RS)-9-(2,3-dihydroxypropyl)adenine]
Reovirus
  MIC50: > 200 µg/mL
Parainfluenza 3
  MIC50: > 400 µg/mL
Sindbis
  MIC50: > 400 µg/mL
Coxsackie B4
  MIC50: > 400 µg/mL
Polio 1; Table 3, HeLa cells
  MIC50: > 400 µg/mL
Measles
  MIC50: > 100 µg/mL
Vesicular stomatitis; Table 3, HeLa, PRK cells
  MIC50: > 400 µg/mL
Vaccinia; Table 3, PRK cells
  MIC50: 0.7 to 3.0 µg/mL
Herpes simplex I (KOS); Table 3
  MIC50: 30 µg/mL (≈ 105 µM)
Herpes simplex 2 (G); Table 3
  MIC50: 30 µg/mL (≈ 105 µM)
Moloney sarcoma
  MIC50: > 200 µg/mL
HSV-1 (strain) McIntyre
  MIC50: 30 µg/mL (≈ 105 µM)
HSV-1 (strain) F
  MIC50: 30 µg/mL (≈ 105 µM)
[1]; Table 4, HSV-1 TK^- C1101, PRK cells
  MIC50: 7 µg/mL (≈ 24.5 µM)
HSV-2 (strain) 196
  MIC50: 15 µg/mL (≈ 52.6 µM)
HSV-2 (strain) Lyons
  MIC50: 15 µg/mL (≈ 52.6 µM)
[2]; 24 h, 100 μg/ml
  Titer of HSV-1: < 1.3 log10 PFU/ml
[2]; [7]
  Titer of HSV-1: 6.04 log10 PFU/ml
[2]; 48 h, 100 μg/ml
  Titer of HSV-1: 2.8 log10 PFU/ml
Vaccinia virus (VV); 1 h, 100 μg/ml
  Titer of VV: 1.6 log10 PFU/ml
Vaccinia virus (VV); 24 h, 100 μg/ml
  Titer of VV: 1.8 log10 PFU/ml
Vaccinia virus (VV); [7]
  Titer of VV: < 1.3 log10 PFU/ml
Vaccinia virus (VV); 48 h, 100 μg/ml
  Titer of VV: < 1.3 log10 PFU/ml
Vaccinia virus (VV); 72 h, 100 μg/ml
  Titer of VV: 1.5 log10 PFU/ml
PRK cells [3]
  MCC (minimal cytotoxic concentration): > 400 µg/mL
PRK cells [4]; (3H-1',2')dUrd
  ID50 dUrd incorporation: ≥ 360 µg/mL
PRK cells [4]; (3H-4,5)Leu
  ID50 Leu incorporation: > 400 µg/mL
PRK cells [4]; (3H-5)Urd
  ID50 Urd incorporation: > 400 µg/mL
PRK cells [4]; (3H-methyl) dThd
  ID50 dThd incorporation: ≥ 390 µg/mL

## Nc1ncnc2c1ncn2C[C@H](O)CO [(S)-DHPA, 9-(S)-(2,3-dihydroxypropyl)adenine, reference compound]
Reovirus
  EC50: 100 µg/mL (≈ 478 µM)
Parainfluenza 3
  EC50: 25 µg/mL (≈ 119 µM)
Sindbis
  EC50: > 400 µg/mL
Coxsackie B4
  EC50: 130 µg/mL (≈ 621 µM)
Polio 1
  EC50: > 400 µg/mL
Measles
  EC50: 20 µg/mL (≈ 95.6 µM)
Vesicular stomatitis
  EC50: 20 µg/mL (≈ 95.6 µM)
Vaccinia
  EC50: 50 µg/mL (≈ 239 µM)
Herpes simplex I (KOS); Table 3
  EC50: > 400 µg/mL
Herpes simplex 2 (G); Table 3
  EC50: > 400 µg/mL
Moloney sarcoma; Mus musculus, read-out: MIC50
  EC50: > 200 µg/mL
[2]; 1 h, 100 μg/ml
  Titer of HSV-1: 1.3 log10 PFU/ml
[2]; 24 h, 100 μg/ml
  Titer of HSV-1: 6.5 log10 PFU/ml
[2]; 48 h, 100 μg/ml
  Titer of HSV-1: 6.9 log10 PFU/ml
[2]; 72 h, 100 μg/ml
  Titer of HSV-1: 6.9 log10 PFU/ml
Vaccinia virus (VV); 1 h, 100 μg/ml
  Titer of VV: 2.0 log10 PFU/ml
Vaccinia virus (VV); 24 h, 100 μg/ml
  Titer of VV: 4.7 log10 PFU/ml
Vaccinia virus (VV); 48 h, 100 μg/ml
  Titer of VV: 5.2 log10 PFU/ml
Vaccinia virus (VV); 72 h, 100 μg/ml
  Titer of VV: 5.5 log10 PFU/ml
In vitro
  MCC at 72 h: > 400 µg/mL
[5]; [8]
  IC50: > 400 µg/mL
[5]; [9]
  IC50: > 400 µg/mL
[5]; [10]
  IC50: 350 µg/mL (≈ 1670 µM)
[5]; [11]
  IC50: > 400 µg/mL

## Nc1ncnc2c1ncn2C[C@H](O)COCP(=O)(O)O (racemic) [No. 3, (RS)-9-(2-hydroxy-3-phosphonylmethoxypropyl)-adenine]
Reovirus
  EC50: > 400 µg/mL
Parainfluenza 3
  EC50: > 400 µg/mL
Sindbis
  EC50: > 400 µg/mL
Coxsackie B4
  EC50: > 400 µg/mL
Polio 1
  EC50: > 400 µg/mL
Measles
  EC50: > 400 µg/mL
Vesicular stomatitis
  EC50: > 400 µg/mL
Vaccinia
  EC50: 15 to 30 µg/mL (≈ 49.5 to 98.9 µM)
Herpes simplex I (KOS); Table 3
  EC50: 70 to 150 µg/mL (≈ 231 to 495 µM)
Herpes simplex I (KOS); Table 4, HSV-1 KOS
  MIC50: 70 to 150 µg/mL
Herpes simplex 2 (G); Table 3
  EC50: 30 to 150 µg/mL (≈ 98.9 to 495 µM)
Herpes simplex 2 (G); Table 4, HSV-2 G
  EC50: 30 to 150 µg/mL (≈ 98.9 to 495 µM)
HSV-1 (strain) McIntyre
  EC50: 150 µg/mL (≈ 495 µM)
HSV-1 (strain) F
  EC50: 70 to 150 µg/mL (≈ 231 to 495 µM)
[1]
  EC50: 30 to 40 µg/mL (≈ 98.9 to 132 µM)
HSV-2 (strain) 196
  EC50: 70 to 150 µg/mL (≈ 231 to 495 µM)
HSV-2 (strain) Lyons
  EC50: 30 to 100 µg/mL (≈ 98.9 to 330 µM)
In vitro
  MCC at 72 h: ≥ 200 µg/mL
[5]; [8]
  IC50: > 400 µg/mL
[5]; [9]
  IC50: > 400 µg/mL
[5]; [10]
  IC50: > 400 µg/mL
[5]; [11]
  IC50: > 400 µg/mL

## O=c1[nH]c(=O)n([C@H]2C[C@H](O)[C@@H](CO)O2)cc1/C=C/Br [BVDU, (E)-5-(2-bromovinyl)-2'-deoxyuridine, reference compound]
Herpes simplex I (KOS); Table 4, HSV-1 KOS
  EC50: 0.02 µg/mL (≈ 0.06 µM)
Herpes simplex 2 (G); Table 4, HSV-2 G
  EC50: 2 µg/mL (≈ 6 µM)
HSV-1 (strain) McIntyre
  EC50: 0.02 µg/mL (≈ 0.06 µM)
HSV-1 (strain) F
  EC50: 0.02 µg/mL (≈ 0.06 µM)
[6]
  EC50: > 200 µg/mL
[1]
  EC50: 70 µg/mL (≈ 210 µM)
HSV-2 (strain) 196
  EC50: 70 µg/mL (≈ 210 µM)
HSV-2 (strain) Lyons
  EC50: 7 µg/mL (≈ 21 µM)
VZV (strain) YS
  EC50: 0.006 µg/mL (≈ 0.018 µM)
VZV (strain) OKa
  EC50: 0.007 µg/mL (≈ 0.021 µM)
VZV (strain) TK^- YSR
  EC50: > 400 µg/mL
VZV (strain) TK^- 07-1
  EC50: > 400 µg/mL
CMV (strain) Davis
  EC50: 300 µg/mL (≈ 901 µM)
CMV (strain) AD 169
  EC50: 200 µg/mL (≈ 600 µM)
TK^- herpes viruses
  activity against TK^- herpes viruses (in words): inactive
